Data taken from PubChem BioAssay AID248 (DTP/NCI, 2004).
“And” between values parts separate entries of the source, which are not always exact repeats. Identical values can stand only once. Inconclusive results and toxic doses are left out. No stated cut-off is given here; in the data, active means T/C of 150% or more; inactive means T/C below 125%.

Tested on: L1210 leukemia ip in BDF1 mice, survival T/C
Assay: NCI In Vivo Anticancer Drug Screen. Data for tumor model L1210 Leukemia (intraperitoneal) in B6D2F1 (BDF1) mice
Details: endpoint: mean survival time, higher = longer survival
Summary of the method: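 In this screen, tumor-bearing mice given compound are compared to those given vehicle, and their survival values are reported as a treated-to-control quotient.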

[1] = dose: 100.0 mg/kg/injection, schedule: Q04DX003 (ip), vehicle: saline with Tween-80
[2] = dose: 200.0 mg/kg/injection, schedule: Q04DX003 (ip), vehicle: saline with Tween-80
[3] = dose: 400.0 mg/kg/injection, schedule: Q04DX003 (ip), vehicle: saline with Tween-80
[4] = dose: 100.0 mg/kg/injection, schedule: Q01DX009 (ip), vehicle: Klucel (hydroxypropylcellulose) (HPC)
[5] = dose: 100.0 mg/kg/injection, schedule: Q04DX003 (ip), vehicle: Klucel (hydroxypropylcellulose) (HPC)
[6] = dose: 200.0 mg/kg/injection, schedule: Q01DX009 (ip), vehicle: Klucel (hydroxypropylcellulose) (HPC)
[7] = dose: 200.0 mg/kg/injection, schedule: Q04DX003 (ip), vehicle: Klucel (hydroxypropylcellulose) (HPC)
[8] = dose: 400.0 mg/kg/injection, schedule: Q04DX003 (ip), vehicle: Klucel (hydroxypropylcellulose) (HPC)
[9] = dose: 25.0 mg/kg/injection, schedule: Q01DX009 (ip), vehicle: saline with Tween-80
[10] = dose: 50.0 mg/kg/injection, schedule: Q01DX009 (ip), vehicle: saline with Tween-80
[11] = dose: 400.0 mg/kg/injection, schedule: Q01DX009 (ip), vehicle: Klucel (hydroxypropylcellulose) (HPC)
[12] = dose: 100.0 mg/kg/injection, schedule: Q01DX001 (ip), vehicle: Klucel (hydroxypropylcellulose) (HPC)
[13] = dose: 200.0 mg/kg/injection, schedule: Q01DX001 (ip), vehicle: Klucel (hydroxypropylcellulose) (HPC)
[14] = dose: 400.0 mg/kg/injection, schedule: Q01DX001 (ip), vehicle: Klucel (hydroxypropylcellulose) (HPC)
[15] = dose: 100.0 mg/kg/injection, schedule: Q01DX009 (ip), vehicle: saline with Tween-80
[16] = dose: 400.0 mg/kg/injection, schedule: Q01DX009 (ip), vehicle: saline with Tween-80
[17] = dose: 100.0 mg/kg/injection, schedule: Q04DX002 (ip), vehicle: Klucel (hydroxypropylcellulose) (HPC)
[18] = dose: 200.0 mg/kg/injection, schedule: Q04DX002 (ip), vehicle: Klucel (hydroxypropylcellulose) (HPC)

Measured: T/C

Cc1ccc(S(=O)(=O)N/N=C/c2ccc(O)cc2)cc1
inactive: dose: 87.5 mg/kg/injection, schedule: Q04DX003 (ip), vehicle: Klucel (hydroxypropylcellulose) (HPC) 97 % of control | dose: 175.0 mg/kg/injection, schedule: Q04DX003 (ip), vehicle: Klucel (hydroxypropylcellulose) (HPC) 105 % of control | dose: 350.0 mg/kg/injection, schedule: Q04DX003 (ip), vehicle: Klucel (hydroxypropylcellulose) (HPC) 103 % of control

CC(C)N(SSN(C(C)C)C(C)C)C(C)C
inactive: [1] 95 % of control | [2] 100 % of control | [3] 89 % of control

N#C/C=C/C#N
inactive: [1] 92 % of control

COc1ccc(S(=O)(=O)NC(=O)NC(=O)C=C(C)C)cc1
inactive: dose: 50.0 mg/kg/injection, schedule: Q01DX009 (ip), vehicle: Klucel (hydroxypropylcellulose) (HPC) 98 % of control | [4] 104 % of control | [5] 102 % of control | [6] 96 % of control | [7] 98 % of control | [8] 101 % of control

COc1cccc(C2NC(=O)N3C(c4cccc(OC)c4)NC(=O)N23)c1 (configuration not stated)
inactive: dose: 100.0 mg/kg/injection, schedule: Q01DX009 (ip), vehicle: gum acacia 98 % of control | dose: 100.0 mg/kg/injection, schedule: Q04DX003 (ip), vehicle: gum acacia 97 % of control | dose: 200.0 mg/kg/injection, schedule: Q01DX009 (ip), vehicle: gum acacia 91 % of control | dose: 200.0 mg/kg/injection, schedule: Q04DX003 (ip), vehicle: gum acacia 95 % of control | dose: 400.0 mg/kg/injection, schedule: Q01DX009 (ip), vehicle: gum acacia 91 % of control

CCCCNC(=O)C1C2C=CC(CC2)C1C(=O)NCCCC (configuration not stated)
inactive: [1] 104 % of control | [2] 100 % of control | [3] 96 % of control

CCOC(=O)NCC(CCCCN(C)C)(c1cccc2ccccc12)C(C)CC (configuration not stated)
inactive: dose: 12.5 mg/kg/injection, schedule: Q01DX009 (ip), vehicle: saline with Tween-80 96 % of control | [9] 97 % of control | [10] 100 % of control

O=C(C1OC1c1ccccc1)C1OC1c1ccccc1 (configuration not stated)
inactive: [4] 98 % of control | [6] 101 % of control | [11] 95 % of control

CC[N+](C)(CC)CCCOC(=O)C(c1ccccc1)c1ccccc1
inactive: dose: 6.25 mg/kg/injection, schedule: Q04DX003 (ip), vehicle: saline 94 % of control | dose: 12.5 mg/kg/injection, schedule: Q04DX003 (ip), vehicle: saline 96 % of control | dose: 25.0 mg/kg/injection, schedule: Q04DX003 (ip), vehicle: saline 96 % of control

CC1(C)OC2OC(C3COC(=O)O3)C(O)C2O1 (configuration not stated)
inactive: [12] 114 % of control | [13] 101 % of control | [14] 96 % of control

COC1C(O)=C2C(=O)OC(C)(O)/C=C/C=C\C=C/C=C/C(c3ccccc3)NC(=O)/C=C/C=C/C=C/C=C/C2(C)C1O (configuration not stated)
inactive: dose: 2.5 mg/kg/injection, schedule: Q01DX009 (ip), vehicle: saline 94 % of control | dose: 5.0 mg/kg/injection, schedule: Q01DX009 (ip), vehicle: saline 100 % of control | dose: 10.0 mg/kg/injection, schedule: Q01DX009 (ip), vehicle: saline 95 % of control

COc1ccc(C(O)C(C)N)cc1 (configuration not stated)
inactive: dose: 75.0 mg/kg/injection, schedule: Q01DX001 (ip), vehicle: saline 96 % of control | dose: 150.0 mg/kg/injection, schedule: Q01DX001 (ip), vehicle: saline 96 % of control

Clc1ccc(/C=N\N=C\c2ccc(Cl)c(Cl)c2)cc1Cl
inactive: [9] 90 % of control | [10] 90 % of control | [15] 95 % of control and 90 % of control | [2] 90 % of control | [16] 97 % of control | [3] 91 % of control

CC(C)CC1NC(=O)C(NC(=O)C(Cc2ccccc2)N(C)C)C(C(C)C)Oc2ccc(cc2)/C=C\NC1=O (configuration not stated)
inactive: dose: 50.0 mg/kg/injection, schedule: Q01DX001 (ip), vehicle: Klucel (hydroxypropylcellulose) (HPC) 90 % of control | [12] 90 % of control | [13] 93 % of control

CC(=O)Nc1ccc2c(c1)C(=O)c1cc(F)ccc1-2
inactive: [1] 100 % of control | [2] 96 % of control | [3] 110 % of control

CCCCOP(=S)(Cc1ccccc1)OCCCC
inactive: [4] 104 % of control | [6] 104 % of control | [11] 104 % of control

Cc1cc(NC(=O)Nc2ccccc2C)no1
inactive: [15] 89 % of control | [1] 97 % of control | dose: 200.0 mg/kg/injection, schedule: Q01DX009 (ip), vehicle: saline with Tween-80 93 % of control | [2] 101 % of control | [16] 91 % of control | [3] 97 % of control

Cc1ccc(NC(=O)OCCCl)c([N+](=O)[O-])c1
inactive: [12] 106 % of control | [4] 96 % of control and 100 % of control | [17] 97 % of control and 102 % of control | [5] 98 % of control | [13] 101 % of control | [6] 94 % of control and 111 % of control | [18] 96 % of control and 97 % of control | [7] 93 % of control | [14] 98 % of control | [11] 94 % of control and 91 % of control | dose: 400.0 mg/kg/injection, schedule: Q04DX002 (ip), vehicle: Klucel (hydroxypropylcellulose) (HPC) 97 % of control and 98 % of control | [8] 111 % of control

Cn1cc([N+](=O)[O-])c2ccccc2c1=O
inactive: [5] 109 % of control | [7] 120 % of control

Cc1cc(Cl)nc2ccc3ccccc3c12
inactive: dose: 100.0 mg/kg/injection, schedule: Q01DX001 (ip), vehicle: saline 96 % of control | dose: 200.0 mg/kg/injection, schedule: Q01DX001 (ip), vehicle: saline 93 % of control | dose: 400.0 mg/kg/injection, schedule: Q01DX001 (ip), vehicle: saline 89 % of control

CN(C)NCC(O)COc1ccc(Cl)cc1 (configuration not stated)
inactive: [17] 103 % of control | [18] 100 % of control

CN(C)c1nn[nH]n1
inactive: [5] 95 % of control | [7] 88 % of control | [8] 95 % of control

OC(COc1cccc2ccccc12)CN1CCCCC1 (configuration not stated)
inactive: dose: 25.0 mg/kg/injection, schedule: Q04DX002 (ip), vehicle: Klucel (hydroxypropylcellulose) (HPC) 106 % of control | dose: 50.0 mg/kg/injection, schedule: Q04DX002 (ip), vehicle: Klucel (hydroxypropylcellulose) (HPC) 98 % of control | [17] 92 % of control

Cc1c(C(=O)c2ccccc2)c2ccccc2n1C
inactive: dose: 50.0 mg/kg/injection, schedule: Q01DX001 (ip), vehicle: carboxymethylcellulose (CMC) 96 % of control | dose: 100.0 mg/kg/injection, schedule: Q01DX001 (ip), vehicle: carboxymethylcellulose (CMC) 91 % of control | dose: 200.0 mg/kg/injection, schedule: Q01DX001 (ip), vehicle: carboxymethylcellulose (CMC) 93 % of control | dose: 400.0 mg/kg/injection, schedule: Q01DX001 (ip), vehicle: carboxymethylcellulose (CMC) 93 % of control

NC(N)=Nc1ccc(Cc2ccc(N=C(N)N)cc2)cc1
inactive: dose: 12.5 mg/kg/injection, schedule: Q01DX Z (oral), vehicle: saline 105 % of control | dose: 25.0 mg/kg/injection, schedule: Q01DX Z (oral), vehicle: saline 103 % of control | dose: 50.0 mg/kg/injection, schedule: Q01DX Z (oral), vehicle: saline 94 % of control | dose: 100.0 mg/kg/injection, schedule: Q01DX Z (oral), vehicle: saline 93 % of control
